Measurements reported in PubChem BioAssay (NCI).
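Cultured in 96-well plates, cells were exposed to test compound for 48 hours across five concentrations. At the TGI there is no net growth.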

Legend:
Experiment in all cases: growth of human tumour cells (NCI), 48 h
M14 melanoma = test system: M14 melanoma
SF-268 CNS = test system: SF-268 CNS
CCRF-CEM leukemia = test system: CCRF-CEM leukemia
HOP-92 NSCLC = test system: HOP-92 NSCLC
UO-31 renal = test system: UO-31 renal
786-0 renal = test system: 786-0 renal
MOLT-4 leukemia = test system: MOLT-4 leukemia
HCT-15 colon = test system: HCT-15 colon
KM12 colon = test system: KM12 colon
MCF7 breast = test system: MCF7 breast
BT-549 breast = test system: BT-549 breast
NCI/ADR-RES ovarian = test system: NCI/ADR-RES ovarian
U251 CNS = test system: U251 CNS
SF-539 CNS = test system: SF-539 CNS
OVCAR-8 ovarian = test system: OVCAR-8 ovarian
HT29 colon = test system: HT29 colon
UACC-257 melanoma = test system: UACC-257 melanoma
HOP-62 NSCLC = test system: HOP-62 NSCLC
HCC-2998 colon = test system: HCC-2998 colon
OVCAR-5 ovarian = test system: OVCAR-5 ovarian
NCI-H23 lung = test system: NCI-H23 lung
HCT-116 colon = test system: HCT-116 colon
NCI-H226 lung = test system: NCI-H226 lung
SK-OV-3 ovarian = test system: SK-OV-3 ovarian
NCI-H522 lung = test system: NCI-H522 lung
RXF 393 renal = test system: RXF 393 renal
MDA-N = test system: MDA-N
OVCAR-3 ovarian = test system: OVCAR-3 ovarian
PC-3 prostate = test system: PC-3 prostate
SK-MEL-28 melanoma = test system: SK-MEL-28 melanoma
MDA-MB-231 breast = test system: MDA-MB-231 breast
MDA-MB-435 = test system: MDA-MB-435
TK-10 renal = test system: TK-10 renal
OVCAR-4 ovarian = test system: OVCAR-4 ovarian
LOX IMVI melanoma = test system: LOX IMVI melanoma
NCI-H460 lung = test system: NCI-H460 lung
CAKI-1 renal = test system: CAKI-1 renal
DU-145 prostate = test system: DU-145 prostate
SN12C renal = test system: SN12C renal
EKVX NSCLC = test system: EKVX NSCLC
UACC-62 melanoma = test system: UACC-62 melanoma
A549 NSCLC = test system: A549 NSCLC
HS 578T breast = test system: HS 578T breast
SNB-75 CNS = test system: SNB-75 CNS
SK-MEL-5 melanoma = test system: SK-MEL-5 melanoma
SW-620 colon = test system: SW-620 colon
IGROV1 ovarian = test system: IGROV1 ovarian
SNB-19 CNS = test system: SNB-19 CNS
SK-MEL-2 melanoma = test system: SK-MEL-2 melanoma
HL-60(TB) leukemia = test system: HL-60(TB) leukemia
SF-295 CNS = test system: SF-295 CNS
COLO 205 colon = test system: COLO 205 colon
ACHN renal = test system: ACHN renal
SR leukemia = test system: SR leukemia
A498 renal = test system: A498 renal
K-562 leukemia = test system: K-562 leukemia
RPMI-8226 leukemia = test system: RPMI-8226 leukemia
MALME-3M melanoma = test system: MALME-3M melanoma

COc1cccc(CC2C(=O)N=C(NC(C)=O)N2C)c1OC(C)=O (stereo not given)
TGI (M14 melanoma): > 100 µM
TGI (SF-268 CNS): > 100 µM
TGI (CCRF-CEM leukemia): > 100 µM
TGI (HOP-92 NSCLC): > 100 µM
TGI (UO-31 renal): > 100 µM
TGI (786-0 renal): > 100 µM
TGI (MOLT-4 leukemia): > 100 µM
TGI (HCT-15 colon): > 100 µM
TGI (KM12 colon): > 100 µM
TGI (MCF7 breast): > 100 µM
TGI (BT-549 breast): > 100 µM
TGI (NCI/ADR-RES ovarian): > 100 µM
TGI (U251 CNS): > 100 µM
TGI (SF-539 CNS): > 100 µM
TGI (OVCAR-8 ovarian): > 100 µM
TGI (HT29 colon): > 100 µM
TGI (UACC-257 melanoma): > 100 µM
TGI (HOP-62 NSCLC): > 100 µM
TGI (HCC-2998 colon): > 100 µM
TGI (OVCAR-5 ovarian): > 100 µM
TGI (NCI-H23 lung): > 100 µM
TGI (HCT-116 colon): > 100 µM
TGI (NCI-H226 lung): > 100 µM
TGI (SK-OV-3 ovarian): > 100 µM
TGI (NCI-H522 lung): > 100 µM
TGI (RXF 393 renal): > 100 µM
TGI (MDA-N): > 100 µM
TGI (OVCAR-3 ovarian): > 100 µM
TGI (PC-3 prostate): > 100 µM
TGI (SK-MEL-28 melanoma): > 100 µM
TGI (MDA-MB-231 breast): > 100 µM
TGI (MDA-MB-435): > 100 µM
TGI (TK-10 renal): > 100 µM
TGI (OVCAR-4 ovarian): > 100 µM
TGI (LOX IMVI melanoma): > 100 µM
TGI (NCI-H460 lung): > 100 µM
TGI (CAKI-1 renal): > 100 µM
TGI (DU-145 prostate): > 100 µM
TGI (SN12C renal): > 100 µM
TGI (EKVX NSCLC): > 100 µM
TGI (UACC-62 melanoma): > 100 µM
TGI (A549 NSCLC): > 100 µM
TGI (HS 578T breast): > 100 µM
TGI (SNB-75 CNS): > 100 µM
TGI (SK-MEL-5 melanoma): > 100 µM
TGI (SW-620 colon): > 100 µM
TGI (IGROV1 ovarian): > 100 µM
TGI (SNB-19 CNS): > 100 µM
TGI (SK-MEL-2 melanoma): > 100 µM
TGI (HL-60(TB) leukemia): > 100 µM
TGI (SF-295 CNS): > 100 µM
TGI (COLO 205 colon): > 100 µM
TGI (ACHN renal): > 100 µM

COc1cc(C2S/C(=C/c3ccccc3)C(=O)N2c2cccc(Cl)c2)cc(OC)c1OC (stereo not given)
TGI (M14 melanoma): > 100 µM
TGI (SF-268 CNS): > 100 µM
TGI (CCRF-CEM leukemia): 73.4 µM
TGI (HOP-92 NSCLC): > 100 µM
TGI (UO-31 renal): > 100 µM
TGI (786-0 renal): > 100 µM
TGI (MOLT-4 leukemia): > 100 µM
TGI (HCT-15 colon): > 100 µM
TGI (KM12 colon): > 100 µM
TGI (MCF7 breast): > 100 µM
TGI (BT-549 breast): 68.4 µM
TGI (NCI/ADR-RES ovarian): > 100 µM
TGI (U251 CNS): > 100 µM
TGI (SF-539 CNS): > 100 µM
TGI (OVCAR-8 ovarian): > 100 µM
TGI (HT29 colon): > 100 µM
TGI (UACC-257 melanoma): 81.8 µM
TGI (HCC-2998 colon): > 100 µM
TGI (OVCAR-5 ovarian): > 100 µM
TGI (SR leukemia): 83.3 µM
TGI (NCI-H23 lung): > 100 µM
TGI (HCT-116 colon): > 100 µM
TGI (NCI-H226 lung): > 100 µM
TGI (SK-OV-3 ovarian): > 100 µM
TGI (NCI-H522 lung): 41.7 µM
TGI (A498 renal): > 100 µM
TGI (MDA-N): > 100 µM
TGI (OVCAR-3 ovarian): > 100 µM
TGI (K-562 leukemia): > 100 µM
TGI (PC-3 prostate): > 100 µM
TGI (SK-MEL-28 melanoma): > 100 µM
TGI (MDA-MB-231 breast): > 100 µM
TGI (MDA-MB-435): 57.8 µM
TGI (TK-10 renal): > 100 µM
TGI (OVCAR-4 ovarian): > 100 µM
TGI (LOX IMVI melanoma): 55.1 µM
TGI (NCI-H460 lung): > 100 µM
TGI (CAKI-1 renal): > 100 µM
TGI (DU-145 prostate): 86.8 µM
TGI (SN12C renal): > 100 µM
TGI (EKVX NSCLC): > 100 µM
TGI (UACC-62 melanoma): > 100 µM
TGI (A549 NSCLC): > 100 µM
TGI (HS 578T breast): > 100 µM
TGI (SK-MEL-5 melanoma): > 100 µM
TGI (SW-620 colon): > 100 µM
TGI (IGROV1 ovarian): > 100 µM
TGI (SNB-19 CNS): > 100 µM
TGI (SK-MEL-2 melanoma): > 100 µM
TGI (HL-60(TB) leukemia): > 100 µM
TGI (SF-295 CNS): > 100 µM
TGI (RPMI-8226 leukemia): > 100 µM
TGI (COLO 205 colon): > 100 µM
TGI (ACHN renal): > 100 µM

COC(=O)Cc1c(C(=O)CC(C)(C)n2cnc(CCN3C(=O)CCC3=O)c2)[nH]c2ccccc12
TGI (M14 melanoma): > 100 µM
TGI (SF-268 CNS): > 100 µM
TGI (CCRF-CEM leukemia): > 100 µM
TGI (HOP-92 NSCLC): > 100 µM
TGI (UO-31 renal): > 100 µM
TGI (786-0 renal): > 100 µM
TGI (MOLT-4 leukemia): > 100 µM
TGI (HCT-15 colon): > 100 µM
TGI (KM12 colon): > 100 µM
TGI (MCF7 breast): > 100 µM
TGI (BT-549 breast): > 100 µM
TGI (NCI/ADR-RES ovarian): > 100 µM
TGI (U251 CNS): > 100 µM
TGI (SF-539 CNS): > 100 µM
TGI (OVCAR-8 ovarian): > 100 µM
TGI (HT29 colon): > 100 µM
TGI (UACC-257 melanoma): > 100 µM
TGI (OVCAR-5 ovarian): > 100 µM
TGI (SR leukemia): > 100 µM
TGI (NCI-H23 lung): > 100 µM
TGI (HCT-116 colon): > 100 µM
TGI (NCI-H226 lung): > 100 µM
TGI (SK-OV-3 ovarian): > 100 µM
TGI (NCI-H522 lung): > 100 µM
TGI (RXF 393 renal): 96 µM
TGI (MDA-N): > 100 µM
TGI (OVCAR-3 ovarian): > 100 µM
TGI (K-562 leukemia): > 100 µM
TGI (PC-3 prostate): > 100 µM
TGI (SK-MEL-28 melanoma): > 100 µM
TGI (MDA-MB-231 breast): > 100 µM
TGI (MDA-MB-435): > 100 µM
TGI (TK-10 renal): > 100 µM
TGI (OVCAR-4 ovarian): > 100 µM
TGI (LOX IMVI melanoma): > 100 µM
TGI (NCI-H460 lung): > 100 µM
TGI (MALME-3M melanoma): > 100 µM
TGI (CAKI-1 renal): > 100 µM
TGI (DU-145 prostate): > 100 µM
TGI (SN12C renal): > 100 µM
TGI (EKVX NSCLC): > 100 µM
TGI (UACC-62 melanoma): > 100 µM
TGI (A549 NSCLC): > 100 µM
TGI (HS 578T breast): > 100 µM
TGI (SNB-75 CNS): > 100 µM
TGI (SK-MEL-5 melanoma): > 100 µM
TGI (SW-620 colon): > 100 µM
TGI (IGROV1 ovarian): > 100 µM
TGI (SNB-19 CNS): > 100 µM
TGI (SK-MEL-2 melanoma): > 100 µM
TGI (SF-295 CNS): > 100 µM
TGI (COLO 205 colon): > 100 µM
TGI (ACHN renal): > 100 µM
